Results from US9452986B2, “6-heteroaryloxy- or 6-aryloxy-quinoline-2-carboxamides and method of use” (AbbVie Inc., priority 2014, dated 2016).

Target: recombinant human Nav1.7 (Homo sapiens (Human), UniProt Q15858)
Assay: FRET-based membrane potential assay, recombinant human sodium channel Nav1.7
Format: cell-based
Details: HEK293 cells stably expressing recombinant human Nav1.7; veratridine + scorpion venom depolarization; read-out: FRET-Membrane Potential Nav1.7 IC50
Method in brief: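 Channel activation used veratridine at its EC80, set by a dilution curve each experiment, together with Leiurus scorpion venom, added 3 min after compound. Membrane-potential ratio signals from FLIPR Tetra in HEPES-buffered HBSS were fitted to a four-parameter Hill equation for percent inhibition and IC50.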

Chain of recombinant human Nav1.7 (Q15858 whole entry): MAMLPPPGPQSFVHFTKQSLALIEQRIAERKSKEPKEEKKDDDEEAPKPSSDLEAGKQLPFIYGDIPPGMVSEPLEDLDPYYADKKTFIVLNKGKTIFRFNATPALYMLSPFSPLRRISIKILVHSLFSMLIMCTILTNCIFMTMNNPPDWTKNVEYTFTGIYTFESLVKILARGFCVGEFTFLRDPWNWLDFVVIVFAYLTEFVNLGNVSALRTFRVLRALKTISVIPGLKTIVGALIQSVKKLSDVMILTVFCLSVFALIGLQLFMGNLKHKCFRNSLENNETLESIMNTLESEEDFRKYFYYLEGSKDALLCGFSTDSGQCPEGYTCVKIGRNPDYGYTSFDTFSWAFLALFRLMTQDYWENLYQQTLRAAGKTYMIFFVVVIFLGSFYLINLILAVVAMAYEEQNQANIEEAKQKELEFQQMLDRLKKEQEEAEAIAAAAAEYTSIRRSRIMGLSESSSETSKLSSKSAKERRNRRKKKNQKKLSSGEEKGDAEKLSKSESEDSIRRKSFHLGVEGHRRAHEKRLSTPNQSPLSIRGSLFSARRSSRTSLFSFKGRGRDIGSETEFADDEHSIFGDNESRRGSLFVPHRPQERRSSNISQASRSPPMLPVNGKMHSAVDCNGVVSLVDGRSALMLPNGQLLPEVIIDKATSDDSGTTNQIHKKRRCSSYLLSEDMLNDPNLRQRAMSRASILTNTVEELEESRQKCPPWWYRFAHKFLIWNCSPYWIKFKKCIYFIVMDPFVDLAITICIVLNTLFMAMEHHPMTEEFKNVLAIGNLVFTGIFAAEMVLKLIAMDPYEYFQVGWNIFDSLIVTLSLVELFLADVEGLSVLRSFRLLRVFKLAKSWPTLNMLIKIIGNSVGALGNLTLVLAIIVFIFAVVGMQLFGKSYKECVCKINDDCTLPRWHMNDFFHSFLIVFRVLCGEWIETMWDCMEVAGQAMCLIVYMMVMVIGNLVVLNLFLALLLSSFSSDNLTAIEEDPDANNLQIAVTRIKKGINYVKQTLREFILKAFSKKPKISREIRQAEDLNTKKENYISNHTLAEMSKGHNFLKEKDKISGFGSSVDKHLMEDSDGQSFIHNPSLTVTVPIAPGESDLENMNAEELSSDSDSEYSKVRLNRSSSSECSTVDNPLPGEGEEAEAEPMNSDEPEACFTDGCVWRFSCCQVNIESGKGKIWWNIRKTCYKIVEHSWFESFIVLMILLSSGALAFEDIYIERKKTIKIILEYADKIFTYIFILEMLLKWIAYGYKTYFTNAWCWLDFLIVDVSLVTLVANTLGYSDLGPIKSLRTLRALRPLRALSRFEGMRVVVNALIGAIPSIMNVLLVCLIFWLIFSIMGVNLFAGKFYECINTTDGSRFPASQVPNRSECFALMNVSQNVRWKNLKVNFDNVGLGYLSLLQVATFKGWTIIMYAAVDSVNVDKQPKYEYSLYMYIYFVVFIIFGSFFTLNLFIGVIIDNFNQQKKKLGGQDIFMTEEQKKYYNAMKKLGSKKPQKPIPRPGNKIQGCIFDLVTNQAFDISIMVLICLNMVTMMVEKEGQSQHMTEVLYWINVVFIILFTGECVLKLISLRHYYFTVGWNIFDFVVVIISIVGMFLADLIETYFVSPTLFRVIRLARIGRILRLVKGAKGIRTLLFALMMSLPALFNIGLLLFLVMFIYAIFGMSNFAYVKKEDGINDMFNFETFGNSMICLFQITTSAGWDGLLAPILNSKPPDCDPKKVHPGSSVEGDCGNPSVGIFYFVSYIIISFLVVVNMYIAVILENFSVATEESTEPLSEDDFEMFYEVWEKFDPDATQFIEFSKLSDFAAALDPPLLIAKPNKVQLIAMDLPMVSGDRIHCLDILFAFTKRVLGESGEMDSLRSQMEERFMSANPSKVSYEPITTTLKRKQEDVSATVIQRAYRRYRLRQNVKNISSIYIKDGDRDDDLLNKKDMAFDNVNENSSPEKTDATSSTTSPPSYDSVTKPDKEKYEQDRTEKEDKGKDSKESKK

| Structure (SMILES) | IC50 [nM] |
| --- | --- |
| O=C(NCC(=O)N1CCS(=O)(=O)C1)c1ccc2cc(Oc3ccc(C(F)(F)F)cn3)ccc2n1 [Example 568, N-[2-(1,1-dioxido-1,3-thiazolidin-3-yl)-2-oxoethyl]-6-{[5-(trifluoromethyl)pyridin-2-yl]oxy}quinoline-2-carboxamide] | 3260 |
| COC1CN(C(=O)CNC(=O)c2ccc3cc(Oc4ccc(C(F)(F)F)cn4)ccc3n2)C1 [Example 569, N-[2-(3-methoxyazetidin-1-yl)-2-oxoethyl]-6-{[5-(trifluoromethyl)pyridin-2-yl]oxy}quinoline-2-carboxamide] | 1210 |
| O=C(NCC(=O)N1CCC[C@@H]1CO)c1ccc2cc(Oc3ccc(C(F)(F)F)cn3)ccc2n1 [Example 570, N-{2-[(2R)-2-(hydroxymethyl)pyrrolidin-1-yl]-2-oxoethyl}-6-{[5-(trifluoromethyl)pyridin-2-yl]oxy}quinoline-2-carboxamide] | 977 |
| O=C1CCN(C(=O)CNC(=O)c2ccc3cc(Oc4ccc(C(F)(F)F)cn4)ccc3n2)C1 [Example 572, N-[2-oxo-2-(3-oxopyrrolidin-1-yl)ethyl]-6-{[5-(trifluoromethyl)pyridin-2-yl]oxy}quinoline-2-carboxamide] | 2700 |
| O=C(NCC(=O)N1CCC(F)C1)c1ccc2cc(Oc3ccc(C(F)(F)F)cn3)ccc2n1 (centres unmarked) [Example 573, N-[2-(3-fluoropyrrolidin-1-yl)-2-oxoethyl]-6-{[5-(trifluoromethyl)pyridin-2-yl]oxy}quinoline-2-carboxamide] | 987 |
| O=C(NC1CC(N2CCOCC2)C1)c1ccc2cc(Oc3ccc(C(F)(F)F)nc3)ccc2n1 (centres unmarked) [Example 574, N-[3-(morpholin-4-yl)cyclobutyl]-6-{[6-(trifluoromethyl)pyridin-3-yl]oxy}quinoline-2-carboxamide] | 295 |
| O=C(c1ccc2cc(Oc3ccc(C(F)F)cn3)ccc2n1)N1CC[C@@H](F)C1 [Example 575, (6-{[5-(difluoromethyl)pyridin-2-yl]oxy}quinolin-2-yl) [(3R)-3-fluoropyrrolidin-1-yl]methanone] | 12100 |
| O=C(c1ccc2cc(Oc3ccc(C(F)F)cn3)ccc2n1)N1CC[C@H](F)C1 [Example 576, (6-{[5-(difluoromethyl)pyridin-2-yl]oxy}quinolin-2-yl) [(3S)-3-fluoropyrrolidin-1-yl]methanone] | 10100 |
| CS(=O)(=O)NC(=O)c1ccc2cc(Oc3ccc(C(F)(F)F)cn3)ccc2n1 [Example 577, N-(methylsulfonyl)-6-{[5-(trifluoromethyl)pyridin-2-yl]oxy}quinoline-2-carboxamide] | 10100 |
| CC1(O)CC(NC(=O)c2ccc3cc(Oc4ccc(C(F)(F)F)nc4)ccc3n2)C1 (centres unmarked) [Example 578, N-(3-hydroxy-3-methylcyclobutyl)-6-{[6-(trifluoromethyl)pyridin-3-yl]oxy}quinoline-2-carboxamide] | 1070 |
| CC(NC(=O)c1ccc2cc(Oc3ccc(C(F)(F)F)cn3)ccc2n1)C(=O)N(C)C (centres unmarked) [Example 579, N-[1-(dimethylamino)-1-oxopropan-2-yl]-6-{[5-(trifluoromethyl)pyridin-2-yl]oxy}quinoline-2-carboxamide] | 1690 |
| O=C(N[C@@H]1CCNC[C@H]1F)c1ccc2cc(Oc3ccc(C(F)(F)F)cn3)ccc2n1 [Example 584, N-[(3R,4R)-3-fluoropiperidin-4-yl]-6-{[5-(trifluoromethyl)pyridin-2-yl]oxy}quinoline-2-carboxamide] | 304 |
| O=C(c1ccc2cc(Oc3ccc(C(F)F)cn3)ccc2n1)N1CCN[C@H](CO)C1 [Example 585, (6-{[5-(difluoromethyl)pyridin-2-yl]oxy}quinolin-2-yl) [(3S)-3-(hydroxymethyl)piperazin-1-yl]methanone] | > 20000 |
| CN1CCC(NC(=O)c2ccc3cc(Oc4ccc(C(F)(F)F)cn4)ccc3n2)C1=O (centres unmarked) [Example 587, N-(1-methyl-2-oxopyrrolidin-3-yl)-6-{[5-(trifluoromethyl)pyridin-2-yl]oxy}quinoline-2-carboxamide] | 1020 |
| COC(C)CNC(=O)c1ccc2cc(Oc3ccc(C(F)(F)F)cn3)ccc2n1 (centres unmarked) [Example 590, N-(2-methoxypropyl)-6-{[5-(trifluoromethyl)pyridin-2-yl]oxy}quinoline-2-carboxamide] | 1000 |
| COC1(CNC(=O)c2ccc3cc(Oc4ccc(C(F)(F)F)cn4)ccc3n2)CCC1 [Example 591, N-[(1-methoxycyclobutyl)methyl]-6-{[5-(trifluoromethyl)pyridin-2-yl]oxy}quinoline-2-carboxamide] | 737 |
| O=C1CC(NC(=O)c2ccc3cc(Oc4ccc(C(F)F)cn4)ccc3n2)C1 [Example 592, 6-{[5-(difluoromethyl)pyridin-2-yl]oxy}-N-(3-oxocyclobutyl)quinoline-2-carboxamide] | 3440 |

Same assay, conditions: read-out: FRET-Membrane Potential Nav1.7 IC50

| Structure (SMILES) | IC50 [nM] |
| --- | --- |
| O=C(NCC(=O)N1CCC1)c1ccc2cc(Oc3ccc(C(F)(F)F)cn3)ccc2n1 [Example 571, N-[2-(azetidin-1-yl)-2-oxoethyl]-6-{[5-(trifluoromethyl)pyridin-2-yl]oxy}quinoline-2-carboxamide] | 448 |
| O=C(c1ccc2cc(Oc3ccc(C(F)(F)F)cn3)ccc2n1)N1CCC[C@@H](O)C1 [Example 581, [(3R)-3-hydroxypiperidin-1-yl](6-{[5-(trifluoromethyl)pyridin-2-yl]oxy}quinolin-2-yl)methanone] | 12600 |
| O=C(c1ccc2cc(Oc3ccc(C(F)(F)F)cn3)ccc2n1)N1CCC[C@H](O)C1 [Example 582, [(3S)-3-hydroxypiperidin-1-yl](6-{[5-(trifluoromethyl)pyridin-2-yl]oxy}quinolin-2-yl)methanone] | 10300 |
| N[C@@H]1CCN(C(=O)c2ccc3cc(Oc4ccc(C(F)(F)F)cn4)ccc3n2)C[C@H]1F [Example 583, [(3R,4R)-4-amino-3-fluoropiperidin-1-yl](6-{[5-(trifluoromethyl)pyridin-2-yl]oxy}quinolin-2-yl)methanone] | 960 |
| O=C(c1ccc2cc(Oc3ccc(C(F)(F)F)cn3)ccc2n1)N1CC(N2CC[C@H](F)C2)C1 [Example 586, {3-[(3S)-3-fluoropyrrolidin-1-yl]azetidin-1-yl}(6-{[5-(trifluoromethyl)pyridin-2-yl]oxy}quinolin-2-yl)methanone] | 1800 |
| CO[C@@H]1CCN(C(=O)c2ccc3cc(Oc4ccc(C(F)(F)F)cn4)ccc3n2)C1 [Example 588, [(3R)-3-methoxypyrrolidin-1-yl](6-{[5-(trifluoromethyl)pyridin-2-yl]oxy}quinolin-2-yl)methanone] | 3640 |
| CO[C@H]1CCN(C(=O)c2ccc3cc(Oc4ccc(C(F)(F)F)cn4)ccc3n2)C1 [Example 589, [(3S)-3-methoxypyrrolidin-1-yl](6-{[5-(trifluoromethyl)pyridin-2-yl]oxy}quinolin-2-yl)methanone] | 4070 |
| COC[C@@H]1CN(C(=O)c2ccc3cc(Oc4ccc(C(F)(F)F)cn4)ccc3n2)CCN1 [Example 593, [(3S)-3-(methoxymethyl)piperazin-1-yl](6-{[5-(trifluoromethyl)pyridin-2-yl]oxy}quinolin-2-yl)methanone] | 238 |
| O=C(c1ccc2cc(Oc3ccc(C(F)(F)F)cn3)ccc2n1)N1CCNC(C(F)F)C1 (centres unmarked) [Example 594, [3-(difluoromethyl)piperazin-1-yl](6-{[5-(trifluoromethyl)pyridin-2-yl]oxy}quinolin-2-yl)methanone] | 7590 |
